Test results taken from patent US20220386635A1, “NITRITE REPLACEMENT (CURING AIDS) CONTAINING NATURAL INGREDIENTS” (KEMIN INDUSTRIES, INC., priority 2021, published 2022).
Values joined by “and” are separate entries in the source; they are usually repeats but may differ in a detail not shown here. Identical values can stand only once. Like-named read-outs stand apart in the source and are kept apart here. Marks after values point to notes of the source that are not given here.

Experiments:
Listeria monocytogenes [1] = assay: Listeria monocytogenes challenge test, Example 5 experiment 1; type: cell-based
[2] = system: C. botulinum spores (Type A: NCTC 7272, Type E: LFMFP-CB 707 and Type E: LFMFP-CB 666); type: cell-based, Clostridium botulinum; conditions: 7° C.; for Anaerobic count: Blend 0.4%, Repl 1 and Repl 2
[3] = Physico-chemical parameters of low salt emulsified cooked pork sausages, Example 6
botulinum toxin = system: botulinum toxin; parameters: species or system Clostridium botulinum
[4] = Lipid oxidation (TBARS) in cooked sausages; conditions: 7° C., shelf life of 8 weeks; threshold for off-odor 0.5 ppm
C. botulinum spores = type: cell-based, Clostridium botulinum
[5] = Color evaluation (L*a*b*, C*, hue) of sausages with black carrot extract, Example 2; conditions: 50 days at 7° C., dark or illuminated last 72 h
Listeria monocytogenes [6] = assay: Listeria monocytogenes challenge study, Example 6; type: cell-based; conditions: after 3 weeks at 7° C.; inoculum 2.6 log10CFU/g
[7] = low salt (1.2%) sausage, dosages per Table 23
[8] = low salt sausage, dosages per Table 23

Structure (SMILES): O=NO [Positive control, sodium nitrite]
- L. monocytogenes count (Listeria monocytogenes [1]; after 8 weeks at 7° C., inoculum 300 CFU/g): 7 log10CFU/g
- time to 1 log increase of L. monocytogenes (Listeria monocytogenes [1]; positive control with nitrite, 7° C.): 14 days
- growth of C. botulinum ([2]; 8 weeks, 0.4% of the invented blend): no growth
- Anaerobic count ([2]; storage time 0 days): 3.08 log10CFU/g and 2.73 log10CFU/g
- Anaerobic count ([2]; storage time 14 days): 2.75 log10CFU/g and 2.70 log10CFU/g
- Anaerobic count ([2]; storage time 28 days): 2.61 log10CFU/g and 2.62 log10CFU/g
- Anaerobic count ([2]; storage time 42 days): 2.67 log10CFU/g and 2.46 log10CFU/g
- Anaerobic count ([2]; storage time 56 days): 2.49 log10CFU/g and 2.43 log10CFU/g
- aw ([3]; 25° C., low salt sausage, dosages per Table 23): 0.978
- Salt content ([3]; calculated based on sodium content, low salt sausage): 1.55%
- Salt content in aqueous phase ([3]; calculated from salt content and moisture content): 2.9%
- pH of cooked meat [3, 7]: 6.21^a
- pH of meat batter [3, 7]: 5.87^ab
- Acetic acid content [3, 8]: 0.008%
- Moisture content [3, 8]: 52.3%
- Number of samples in which botulinum toxin was detected to total analyzed samples (botulinum toxin): 0/2
- Lipid oxidation (TBARS values) [4]: maintain low TBARS values
- Clostridium botulinum outgrowth (C. botulinum spores; 7° C., 8 weeks, significant growth = >0.5 log10CFU/g): no growth of C. botulinum
- Anaerobic count (average ± standard deviation, n = 2) (C. botulinum spores; storage time 0 days at 7° C., dosages per Table 23): 3.7 ± 0.1 log10CFU/g
- Anaerobic count (average ± standard deviation, n = 2) (C. botulinum spores; storage time 14 days at 7° C., * significant outgrowth (>0.5 log10CFU/g) in at least one replicate): 2.3 ± 0.3 log10CFU/g
- Anaerobic count (average ± standard deviation, n = 2) (C. botulinum spores; storage time 24 days at 7° C., * significant outgrowth (>0.5 log10CFU/g) in at least one replicate): 2.4 ± 0.0 log10CFU/g
- Anaerobic count (average ± standard deviation, n = 2) (C. botulinum spores; storage time 42 days at 7° C., * significant outgrowth (>0.5 log10CFU/g) in at least one replicate): 2.2 ± 0.1 log10CFU/g
- Anaerobic count (average ± standard deviation, n = 2) (C. botulinum spores; storage time 56 days at 7° C., * significant outgrowth (>0.5 log10CFU/g) in at least one replicate): 2.2 ± 0.0 log10CFU/g
- Color stability during storage [5]: faded drastically
- L. monocytogenes count (Listeria monocytogenes [6]): more than 7 log10CFU/g
